Source: patent publication US10894817B2, “Fatty acid modified urocortin-2 analogs for the treatment of diabetes and chronic kidney disease” (priority 2016, dated 2021)
Starred links: 1 amine or outer side, 2 acyl side, 3 side chain; linkers in the order of their positions; H or OH if unused. Non-standard residues stand in square brackets, D forms with d. Residues, ends and D or L forms follow the SMILES beside them. Groups on a side chain read outwards from the residue. *: point of attachment. C20 diacid = O=C(O)CCCCCCCCCCCCCCCCCCC(=O)*; C18 diacid = O=C(O)CCCCCCCCCCCCCCCCC(=O)*; γGlu = O=C(O)[C@H](CCC(=O)[*:2])N[*:1]; Palmitoyl = CCCCCCCCCCCCCCCC(=O)*; NMeI = CC[C@H](C)[C@H](NC)C(=O)O; AEEA = NCCOCCOCC(=O)O

Molecular target: T1, human CRHR2b (Homo sapiens, UniProt Q13324)
T1 construct: expressed in transfected cells; host or cells: Chinese Hamster Ovary (CHO) cells, transient transfection
T1 sequence (Q13324 1-438 isoform Q13324-2): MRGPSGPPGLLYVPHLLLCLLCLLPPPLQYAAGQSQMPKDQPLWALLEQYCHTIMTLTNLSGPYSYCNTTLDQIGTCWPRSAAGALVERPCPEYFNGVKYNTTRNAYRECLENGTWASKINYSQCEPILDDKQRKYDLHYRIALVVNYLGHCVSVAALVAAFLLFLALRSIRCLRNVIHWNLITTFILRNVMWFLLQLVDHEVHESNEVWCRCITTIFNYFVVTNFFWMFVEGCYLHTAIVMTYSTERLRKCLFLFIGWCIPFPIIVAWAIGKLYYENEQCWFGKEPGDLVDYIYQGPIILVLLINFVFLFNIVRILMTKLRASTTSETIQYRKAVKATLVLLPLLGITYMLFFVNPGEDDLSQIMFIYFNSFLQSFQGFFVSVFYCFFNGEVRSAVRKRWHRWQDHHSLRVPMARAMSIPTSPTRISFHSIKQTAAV
Assay: human CRHR2b cell-based cAMP assay
Settings: cAMP assay; Table 26, compounds of Example 9; read-out: hCRHR2b Average EC50
Method in brief: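 ED50 values are means ± SEM over several runs, curve-fitted from cAMP in pmol, calibrated against unlabeled-cAMP standards. Detection was HTRF competition, ratio 665/620 nm, after 30 min agonist exposure at 37 °C.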

| Structure (SMILES) | EC50 [nM] |
| --- | --- |
| CC[C@H](C)[C@H](N)C(=O)N[C@H](C(=O)N[C@@H](CC(C)C)C(=O)N[C@@H](CO)C(=O)N[C@@H](CC(C)C)C(=O)N[C@@H](CC(=O)O)C(=O)N[C@H](C(=O)N1CCC[C@H]1C(=O)N[C@H](C(=O)NCC(=O)N[C@@H](CC(C)C)C(=O)N[C@@H](CC(C)C)C(=O)N[C@@H](CCC(N)=O)C(=O)N[C@H](C(=O)N[C@@H](CCCCNC(=O)COCCOCCNC(=O)COCCOCCNC(=O)CC[C@H](NC(=O)CC[C@H](NC(=O)CCCCCCCCCCCCCCCCC(=O)O)C(=O)O)C(=O)O)C(=O)N[C@@H](CC(C)C)C(=O)N[C@@H](CCC(=O)O)C(=O)N[C@@H](CCC(N)=O)C(=O)N[C@@H](CCC(=O)O)C(=O)N[C@@H](CCCCN)C(=O)N[C@@H](CCC(N)=O)C(=O)N[C@@H](CCC(=O)O)C(=O)N[C@@H](CCCCN)C(=O)N[C@@H](CCC(=O)O)C(=O)N[C@@H](CCCCN)C(=O)N[C@@H](CCC(N)=O)C(=O)N[C@@H](CCC(N)=O)C(=O)N[C@@H](C)C(=O)N[C@H](C(=O)N[C@H](C(=O)N[C@@H](CC(N)=O)C(=O)N[C@@H](C)C(=O)N[C@@H](CCC(N)=O)C(=O)N[C@H](C(=O)N[C@@H](CC(C)C)C(=O)N[C@@H](C)C(=O)N[C@@H](Cc1c[nH]cn1)C(=O)N[C@H](C(N)=O)C(C)C)[C@@H](C)CC)[C@@H](C)O)[C@@H](C)O)[C@@H](C)CC)[C@@H](C)CC)C(C)C)C(C)C [Compound 41] (H-IVLSLDVPIGLLQIK([AEEA-AEEA-γGlu-γGlu-C18 diacid])LEQEKQEKEKQQATTNAQILAHV-NH2) | 207 |
| CC[C@H](C)[C@H](NC)C(=O)N[C@H](C(=O)N[C@@H](CC(C)C)C(=O)N[C@@H](CO)C(=O)N[C@@H](CC(C)C)C(=O)N[C@@H](CC(=O)O)C(=O)N[C@H](C(=O)N1CCC[C@H]1C(=O)N[C@H](C(=O)NCC(=O)N[C@@H](CC(C)C)C(=O)N[C@@H](CC(C)C)C(=O)N[C@@H](CCC(N)=O)C(=O)N[C@H](C(=O)N[C@@H](CC(C)C)C(=O)N[C@@H](CC(C)C)C(=O)N[C@@H](CCC(=O)O)C(=O)N[C@@H](CCC(N)=O)C(=O)N[C@@H](CCC(=O)O)C(=O)N[C@@H](CCCCN)C(=O)N[C@@H](CCC(N)=O)C(=O)N[C@@H](CCC(=O)O)C(=O)N[C@@H](CCCCN)C(=O)N[C@@H](CCC(=O)O)C(=O)N[C@@H](CCCCN)C(=O)N[C@@H](CCC(N)=O)C(=O)N[C@@H](CCC(N)=O)C(=O)N[C@@H](C)C(=O)N[C@@H](CCCCNC(=O)CC[C@H](NC(=O)CC[C@H](NC(=O)CCCCCCCCCCCCCCCCCCC(=O)O)C(=O)O)C(=O)O)C(=O)N[C@@H](CCC(=O)O)C(=O)N[C@@H](CC(N)=O)C(=O)N[C@@H](C)C(=O)N[C@@H](CCC(=O)O)C(=O)N[C@H](C(=O)N[C@@H](CC(C)C)C(=O)N[C@@H](C)C(=O)N[C@@H](CCC(N)=O)C(=O)N[C@H](C(N)=O)C(C)C)[C@@H](C)CC)[C@@H](C)CC)[C@@H](C)CC)C(C)C)C(C)C [Compound 58] (H-[NMeI]VLSLDVPIGLLQILLEQEKQEKEKQQAK([γGlu-γGlu-C20 diacid])ENAEILAQV-NH2) | 3.79 |
| CC[C@H](C)[C@H](NC)C(=O)N[C@H](C(=O)N[C@@H](CC(C)C)C(=O)N[C@@H](CO)C(=O)N[C@@H](CC(C)C)C(=O)N[C@@H](CC(=O)O)C(=O)N[C@H](C(=O)N1CCC[C@H]1C(=O)N[C@H](C(=O)NCC(=O)N[C@@H](CC(C)C)C(=O)N[C@@H](CC(C)C)C(=O)N[C@@H](CCC(N)=O)C(=O)N[C@H](C(=O)N[C@@H](CC(C)C)C(=O)N[C@@H](CC(C)C)C(=O)N[C@@H](CCC(=O)O)C(=O)N[C@@H](CCC(N)=O)C(=O)N[C@@H](CCC(=O)O)C(=O)N[C@@H](CCCCN)C(=O)N[C@@H](CCC(N)=O)C(=O)N[C@@H](CCC(=O)O)C(=O)N[C@@H](CCCCN)C(=O)N[C@@H](CCC(=O)O)C(=O)N[C@@H](CCCCN)C(=O)N[C@@H](CCC(N)=O)C(=O)N[C@@H](CCC(N)=O)C(=O)N[C@@H](C)C(=O)N[C@@H](CCCCNC(=O)CC[C@H](NC(=O)COCCOCCNC(=O)CC[C@H](NC(=O)CC[C@H](NC(=O)CCCCCCCCCCCCCCCCCCC(=O)O)C(=O)O)C(=O)O)C(=O)O)C(=O)N[C@H](C(=O)N[C@@H](CC(N)=O)C(=O)N[C@@H](C)C(=O)N[C@@H](CCC(N)=O)C(=O)N[C@H](C(=O)N[C@@H](CC(C)C)C(=O)N[C@@H](C)C(=O)N[C@@H](CCC(N)=O)C(=O)N[C@H](C(N)=O)C(C)C)[C@@H](C)CC)[C@@H](C)O)[C@@H](C)CC)[C@@H](C)CC)C(C)C)C(C)C [Compound 61] (H-[NMeI]VLSLDVPIGLLQILLEQEKQEKEKQQAK([γGlu-AEEA-γGlu-γGlu-C20 diacid])TNAQILAQV-NH2) | 2.5 |

Results, then the compound that gave them:

| EC50 [nM] | Structure (SMILES) |
| --- | --- |
| 1.16 | CC[C@H](C)[C@H](N)C(=O)N[C@H](C(=O)N[C@@H](CC(C)C)C(=O)N[C@@H](CO)C(=O)N[C@@H](CC(C)C)C(=O)N[C@@H](CC(=O)O)C(=O)N[C@H](C(=O)N1CCC[C@H]1C(=O)N[C@H](C(=O)NCC(=O)N[C@@H](CC(C)C)C(=O)N[C@@H](CC(C)C)C(=O)N[C@@H](CCC(N)=O)C(=O)N[C@H](C(=O)N[C@@H](CC(C)C)C(=O)N[C@@H](CC(C)C)C(=O)N[C@@H](CCC(=O)O)C(=O)N[C@@H](CCC(N)=O)C(=O)N[C@@H](CCC(=O)O)C(=O)N[C@@H](CCCCN)C(=O)N[C@@H](CCC(N)=O)C(=O)N[C@@H](CCC(=O)O)C(=O)N[C@@H](CCCCN)C(=O)N[C@@H](CCC(=O)O)C(=O)N[C@@H](CCCCN)C(=O)N[C@@H](CCC(N)=O)C(=O)N[C@@H](CCC(N)=O)C(=O)N[C@@H](C)C(=O)N[C@@H](CCCCNC(=O)COCCOCCNC(=O)COCCOCCNC(=O)CC[C@H](NC(=O)CC[C@H](NC(=O)CCCCCCCCCCCCCCCCC(=O)O)C(=O)O)C(=O)O)C(=O)N[C@H](C(=O)N[C@@H](CC(N)=O)C(=O)N[C@@H](C)C(=O)N[C@@H](CCC(N)=O)C(=O)N[C@H](C(=O)N[C@@H](CC(C)C)C(=O)N[C@@H](C)C(=O)N[C@@H](CCC(N)=O)C(=O)N[C@H](C(N)=O)C(C)C)[C@@H](C)CC)[C@@H](C)O)[C@@H](C)CC)[C@@H](C)CC)C(C)C)C(C)C [Compound 52] (H-IVLSLDVPIGLLQILLEQEKQEKEKQQAK([AEEA-AEEA-γGlu-γGlu-C18 diacid])TNAQILAQV-NH2) |
| 25.3 | CCCCCCCCCCCCCCCC(=O)N[C@@H](CCC(=O)NCCCC[C@H](NC(=O)[C@H](CCC(N)=O)NC(=O)[C@H](CCC(=O)O)NC(=O)[C@H](CC(C)C)NC(=O)[C@H](CC(C)C)NC(=O)[C@@H](NC(=O)[C@H](CCC(N)=O)NC(=O)[C@H](CC(C)C)NC(=O)[C@H](CC(C)C)NC(=O)CNC(=O)[C@@H](NC(=O)[C@@H]1CCCN1C(=O)[C@@H](NC(=O)[C@H](CC(=O)O)NC(=O)[C@H](CC(C)C)NC(=O)[C@H](CO)NC(=O)[C@H](CC(C)C)NC(=O)[C@@H](NC(=O)[C@@H](N)[C@@H](C)CC)C(C)C)C(C)C)[C@@H](C)CC)[C@@H](C)CC)C(=O)N[C@@H](CCCCN)C(=O)N[C@@H](CCC(N)=O)C(=O)N[C@@H](CCC(=O)O)C(=O)N[C@@H](CCCCN)C(=O)N[C@@H](CCC(=O)O)C(=O)N[C@@H](CCCCN)C(=O)N[C@@H](CCC(N)=O)C(=O)N[C@@H](CCC(N)=O)C(=O)N[C@@H](C)C(=O)N[C@H](C(=O)N[C@H](C(=O)N[C@@H](CC(N)=O)C(=O)N[C@@H](C)C(=O)N[C@@H](CCCNC(=N)N)C(=O)N[C@H](C(=O)N[C@@H](CC(C)C)C(=O)N[C@@H](C)C(=O)N[C@@H](CCCNC(=N)N)C(=O)N[C@H](C(N)=O)C(C)C)[C@@H](C)CC)[C@@H](C)O)[C@@H](C)O)C(=O)O [Compound 24, IVLSLDVPIGLLQILLEQK*KQEKEKQQATTNARILARV-NH2] (H-IVLSLDVPIGLLQILLEQK([γGlu-Palmitoyl])KQEKEKQQATTNARILARV-NH2) |
| 24.1 | CCCCCCCCCCCCCCCC(=O)N[C@@H](CCC(=O)NCCCC[C@H](NC(=O)[C@H](C)NC(=O)[C@H](CCC(N)=O)NC(=O)[C@H](CCC(N)=O)NC(=O)[C@H](CCCCN)NC(=O)[C@H](CCC(=O)O)NC(=O)[C@H](CCCCN)NC(=O)[C@H](CCC(=O)O)NC(=O)[C@H](CCC(N)=O)NC(=O)[C@H](CCCCN)NC(=O)[C@H](CCC(=O)O)NC(=O)[C@H](CCC(N)=O)NC(=O)[C@H](CCC(=O)O)NC(=O)[C@H](CC(C)C)NC(=O)[C@H](CC(C)C)NC(=O)[C@@H](NC(=O)[C@H](CCC(N)=O)NC(=O)[C@H](CC(C)C)NC(=O)[C@H](CC(C)C)NC(=O)CNC(=O)[C@@H](NC(=O)[C@@H]1CCCN1C(=O)[C@@H](NC(=O)[C@H](CC(=O)O)NC(=O)[C@H](CC(C)C)NC(=O)[C@H](CO)NC(=O)[C@H](CC(C)C)NC(=O)[C@@H](NC(=O)[C@@H](N)[C@@H](C)CC)C(C)C)C(C)C)[C@@H](C)CC)[C@@H](C)CC)C(=O)N[C@H](C(=O)N[C@@H](CC(N)=O)C(=O)N[C@@H](C)C(=O)N[C@@H](CCCNC(=N)N)C(=O)N[C@H](C(=O)N[C@@H](CC(C)C)C(=O)N[C@@H](C)C(=O)N[C@@H](CCCNC(=N)N)C(=O)N[C@H](C(N)=O)C(C)C)[C@@H](C)CC)[C@@H](C)O)C(=O)O [Compound 37] (H-IVLSLDVPIGLLQILLEQEKQEKEKQQAK([γGlu-Palmitoyl])TNARILARV-NH2) |
